Assay results taken from patent US20090093538A1, “Method for treating cancer” (priority 2007, published 2009).
“Also recorded” adds a separate entry of the source.

Key:
HSB2 cells [1] = assay: Apoptosis, Annexin V / propidium iodide FACS; format: cell-based; settings: for relative levels of apoptotic cells: agent alone, without Compound 1
Protocol: (§1) To confirm that the ability of NAC to block Compound 1-induced cell death was not cell-line specific, we examined the role of oxidative stress in two additional cell lines by FAC analysis. RAMOS and HSB2 cells (ATCC) were seeded in 6-well plates at 1×10^6 cells/well/4 mL and incubated at 37° C. for 4 hours. […] After incubation the cells were stained with Annexin V and propidium iodide (Vybrant Apoptosis assay kit, Cat# V13241, Invitrogen, Molecular Probes) for measuring apoptotic cells by FACS analysis.
The cells were harvested and stained with Annexin V and propidium iodide for measuring apoptotic cells by FACS analysis.

MDA-MB-435 cells = assay: Cell viability (Cell Counting Kit-8); format: cell-based, human; settings: […] NAC, 500 nM Compound 1, 72 hours
Protocol: The cells were further cultured at 37° C. for 72 hours and cell viability was measured with Cell Counting Kit-8 (Dojindo Laboratories, Cat# CK04).

[2] = system: Hs294T (or MDA-MB-435) cells; assay: Affymetrix transcriptional profiling; format: cell-based, human; settings: Hs294T cells; NAC 5 mM 30 minutes prior to Compound 1 100 nM; 6 hours
Protocol: RNA was isolated from the cells 6 hours after treatment using the RNeasy kit according to the manufacturers instructions (Qiagen Cat. # 71404) and RNA quality was confirmed by spectrophotometric examination. cDNA was synthesized using the One-Cycle cDNA Synthesis Kit (Affymetrix Cat. # 900431) according to the manufacturers instructions. cDNA was labeled using the GeneChip IVT Labeling Kit (Affymetrix Cat. #900449) and analyzed in duplicate on the Affymetrix Human Genome U133Plus 2.0 gene chip array according to standard Affymetrix protocols. Data sheets from the Affymetrix Gene Chip Scanner 3000 were imported into Microsoft Excel and filtered by the following criteria: greater than or equal to 1.5 fold increase, greater than or equal to 0.4SE between replicates; and 50 (low stringency) or 500 (high stringency) for the lowest signal.
NAC is the rate-limiting amino acid for the production of the antioxidant glutathione. Addition of NAC to cells increases the levels of endogenous glutathione which in turn blocks oxidative stress and ROS generation. […] RNA was isolated from the cells 6 hours after treatment and Affymetrix analysis was performed as above.

Hsp70 [3] = assay: Hsp70 RNA induction, quantitative PCR, Hs294T cells; format: cell-based, human; settings: Compound 1 100 nM, 6 hours
Protocol: […] 500 ng of RNA from each sample was used for cDNA synthesis using iScript cDNA Synthesis Kit (Biorad, Cat# 170-8891). 1 uL of cDNA mixture was used with the iQ SYBR Green Supermix (Biorad, Cat# 170-8882) to perform quantitative PCR in an iCycler machine (Biorad) using standard protocols. QPCR for each sample/time point was performed in duplicate. The following primers for inducible human Hsp70 and gapdh were used:
Ct values were obtained from the iCycler program and used in an equation (2^−ΔΔCT) for determining the amount of target relative to gapdh expression. This compares the relative expression of Hsp70 to the corresponding levels of gapdh in each sample. Duplicate wells were averaged and graphed with their corresponding standard deviation.
Activation of HSF-1 by oxidative stress has been reported in the literature to require p38 kinase signaling in some cell lines.

Ramos cells [4] = assay: Apoptosis, Annexin V / propidium iodide FACS; format: cell-based; settings: 5 mM NAC
Protocol: as §1

Ramos cells [5] = assay: ROS generation, carboxy-H2DCFDA probe, flow cytometry; format: cell-based
Protocol: In these experiments, we monitored the production of ROS using the cell permeable Carboxy-H2DCFDA probe. When this probe is oxidized by ROS, it emits a green fluorescence that can be detected using flow cytometry or fluorescent microscopy. […] 25 μM carboxy-H2DCFDA (Invitrogen. C400) working solution was added to cover the cells, and the cells were incubate for 30 minutes at 37° C., protected from light. The cells were gently washed three times in warm HBSS/Ca/Mg. ROS levels, as determined by fluorescence intensity, were determined by flow cytometry (excitation at 495 nm, emission at 529 nm).
(§2) Tiron is a direct scavenger of ROS and is a potent inhibitor of oxidative stress.
Ramos cells were treated with elesclomol (500 nM) for the indicated times then washed gently once with warm HBSS/Ca/Mg (Invitrogen Carlsbad, Calif. Cat# 14025). 25 μM carboxy-H2DCFDA (Invitrogen Cat #C400) working solution was added to cover the cells and they were incubated for 30 minutes at 37° C., protected from light. The cells were gently washed three times in warm HBSS/Ca/Mg. ROS levels (fluorescence intensity) were determined by flow cytometry (excitation at 495 nm, emission at 529 nm) using a Becton Dickinson FACSCalibur equipped with CellQuest Pro software. Data is plotted as percent of elesclomol-treated cells with DCFDA fluorescence relative to DMSO (control) treated cells (see FIG. 49).

[6] = system: Stage 1V metastatic melanoma
Protocol: A phase II clinical trial was conducted in patients that had Stage 1V metastatic melanoma patients.
Patients were treated until progression of the disease. […] The tumor assessments were performed at baseline, Cycle 2, and every other Cycle thereafter.

[7] = in vivo
Hsp70 [8] = assay: Hsp70 induction by Compound 1 in the presence of Tiron; format: cell-based; settings: Tiron (FIG. 45)
From the text: as §2

HSB2 cells [9] = assay: Apoptosis, Annexin V / propidium iodide FACS; format: cell-based; settings: p38 inhibitor 20 μM plus Compound 1 0.2 μM
MSK1 = MSK1 phosphorylation, Western blot, MDA-MB-435 cells; format: cell-based, human; settings: 20 μM SB203580, 0.1 or 0.5 μM Compound 1
Protocol: (§3) After treatment the cells were lysized and used for Western blot analysis.
Samples were run on a SDS-PAGE gel and proteins were transferred onto a nitrocellulose membrane by a semi-dry transfer. Nitrocellulose was blocked with 5% skim milk in TBS with 0.5% Tween at room temperature for 1 hour and then probed with anti-p-MSK1 (Thr581) (#9595, Cell Signaling) antibody. The nitrocellulose was then probed with secondary antibodies, HRP-conjugated goat anti-rabbit IgG and HRP-conjugated horse anti-mouse IgG (#7074, #7076, Cell Signaling). LumiGLO reagent, 20× Peroxide (#7003, Cell Signaling) was used to visualize gel (see FIG. 36).
(§4) Samples were run on a SDS-PAGE gel and proteins were transferred onto a nitrocellulose membrane by a semi-dry transfer. Nitrocellulose was blocked with 5% skim milk in TBS with 0.5% Tween at room temperature for 1 hour and then probed with anti-p-MSK1 (Thr581) (#9595, Cell Signaling) antibody. Tubulin was used as a normalization control and was probed with Anti-Tubulin (T9026, Sigma) antibody.

MAPKAPK-2 = MAPKAPK-2 phosphorylation, Western blot, CEM and CV-1 cells; format: cell-based; settings: 20 μM SB203580, 0.1 or 0.5 μM Compound 1
Protocol: as §3
as §4, with “anti-p-MAPKAPK-2 (Thr334) (#3041,” for “anti-p-MSK1 (Thr581) (#9595,”

[10] = system: cytochrome c and caspase 3; assay: Apoptotic markers, Western blot, Ramos cells; format: cell-based; settings: 100 nM
Protocol: Ramos cells were plated for 3 hours then treated with 100 nM elesclomol for the indicated times. To determine cytochrome c levels in the cytoplasm and mitochondria (a) Ramos cells were fractionated using the method detailed in (Hase et al, Journal of Biol. Chem. Vol. 277, pp. 46950-58, 2002) and western blots were probed with Cytochrome C primary antibody (BD Pharmingen, clone 7H8.2; C12). All Western blots were probed with secondary antibodies conjugated to HRP (Cell Signaling) and visualized using Lumiglo (Cell Signaling) peroxide reagents. Images were captured from the Kodak Image Station 440. For Caspase 3 analysis (b), whole cell lysates were isolated using 1× cell lysis buffer (Cell Signaling, Danvers, Mass.) plus protease inhibitors (Calbiochem, San Diego, Calif.). 30 ug of protein was run on a 4-12% Nupage gel (Invitrogen) and immunoblotted using standard procedures. The blots were probed with Caspase 3 antibody (9662) and cleaved Caspase 3 primary antibodies (9661) both from Cell Signaling.

[11] = RECIST, Efficacy Sample, patients (percent)

## CC(=O)N[C@@H](CS)C(=O)O [NAC, N-acetyl-cysteine, reference compound]
HSB2 cells [1]; NAC 5 mM alone
  early apoptotic cells: 11%
HSB2 cells [1]
  relative levels of apoptotic cells: little or no effect
MDA-MB-435 cells
  block of Compound 1-induced cell death: completely blocked the ability of Compound 1 to induce cell death
[2]
  effect of NAC on genes induced by Compound 1: inhibited the genes most robustly induced by Compound 1
Hsp70 [3]; 5 mM NAC
  inhibition of Hsp70 induction by Compound 1: complete inhibition in Hsp70 induction; also recorded: completely inhibited
Ramos cells [4]
  inhibition of Compound 1-induced early apoptotic signaling: completed inhibited early apoptotic signaling
Ramos cells [5]; 1.0 mM or 10 mM NAC 1 hour prior to Compound 1 0.5 μM
  block of ROS generation by Compound 1: almost completely blocked the generation of ROS by Compound 1

## CC(=O)O[C@H]1C(=O)[C@@]2(C)[C@H]([C@H](OC(=O)c3ccccc3)[C@]3(O)C[C@H](OC(=O)[C@H](O)[C@@H](NC(=O)c4ccccc4)c4ccccc4)C(C)=C1C3(C)C)[C@]1(OC(C)=O)CO[C@@H]1C[C@@H]2O [Paclitaxel, paclitaxel]
[6]; RECIST, Efficacy Sample
  CR + PR (95% CI): 3.7% (0.1%,19.0%)
[6]; [11]
  Best Overall Response: Complete Response (CR): 0
  Best Overall Response: Partial Response (PR): 1 (3.7%)
  Best Overall Response: Progressive Disease (PD): 16 (59.3%)
[6]; Table 5
  number of patients with partial response: 1 patient
  patients with progressive disease: 59.3%
  patients with stable disease: 37%
[7]
  dose limiting toxicities: dose limiting toxicities occurred in a single patient in each of the top three dose levels

## O=S(=O)(O)c1cc(O)c(O)c(S(=O)(=O)O)c1 [Tiron, reference compound]
Hsp70 [8]
  block of induction of Hsp70 by Compound 1: blocks the induction of Hsp70 by Compound 1
Ramos cells [5]; 500 mM Tiron 1 hour prior to Compound 1 0.5 μM, 24 hours
  block of ROS generation by Compound 1: blocked the ability of Compound 1 to generate ROS

## C[S+]([O-])c1ccc(-c2nc(-c3ccncc3)c(-c3ccc(F)cc3)[nH]2)cc1 (stereo not drawn) [SB203580, reference compound]
HSB2 cells [1]
  relative levels of apoptotic cells: little or no effect
HSB2 cells [9]
  effect of p38 inhibitor on apoptosis induced by Compound 1: did not effect induction of apoptosis by Compound 1
MSK1
  block of Compound 1 induced phosphorylation of MSK1: blocked
Hsp70 [3]; p38 inhibitor 20 uM
  inhibition of Hsp70 induction by Compound 1: robust decrease in Hsp70 induction
MAPKAPK-2
  block of Compound 1 induced phosphorylation of MAPKAPK-2: blocked

## CN(NC(=O)CC(=O)NN(C)C(=S)c1ccccc1)C(=S)c1ccccc1 [elesclomol]
[10]
  time post treatment at which cytochrome c and caspase 3 start to be activated: 6 h
Ramos cells [5]; 500 nM, time course
  accumulation of ROS: induces accumulation of ROS in cells shortly after drug treatment
